Laboratory results from patent publication US12280114B2, “Extraction of plant source “medicinal soup” and manual preparation of “herbal medicine” and related products” (BEIJING BAISHIHEKANG PHARMACEUTICAL TECHNOLOGY (BSJPHARMA) …, priority 2018, dated 2025).

Experiments:
[1] = tested on: A549 cells; assay: Digital PCR (ddPCR) detection of nucleic acid delivery by lipid into A549 cells; type: cell-based, human; conditions: single lipid; boiling or reverse evaporation method
Description: Referring to the QX200 Droplet Reader and QuantaSoft Software manual for the protocols, the results were analyzed using QuantaSoft software.
2.2 Experimental method: total RNA was collected and extracted by TRIzol lysis buffer according to the above method, and reverse transcribed to cDNA using High capacity cRNA Reverse Transcription Kit, and the cDNA from different groups was subjected to digital PCR reaction.
2.2 Experimental method: Total RNA was collected and extracted by TRIzol lysis buffer according to the above method, and reverse transcribed to cDNA using TaqMan™ MicroRNA Reverse Transcription KitHigh, and the cDNA from different groups was subjected to digital PCR reaction.
2.2 Experimental method: Total RNA was collected and extracted by TRIzol lysis buffer according to the above method, and reversed to cDNA using High capacity CRNA Reverse Transcription Kit, and the cDNA from different groups was subjected to digital PCR reaction.

[2] = tested on: A549 cells; assay: RT-qPCR detection of nucleic acid delivered by lipid into A549 cells; type: cell-based, human; conditions: HJT-sRNA-m7 double-stranded RNA, reverse evaporation method
[3] = In vivo delivery of small RNA into mouse blood, stomach, small intestine and liver via gavage (RT-qPCR); conditions: Example 11; 10 μL single lipid + sRNA 1 nmol each, heating method; 12 hours
Description: [Experimental method] 6-8 weeks old mice, 22-24 g, were raised in SPF room of the Animal Center of the Institute of Basic Medical Sciences of Chinese Academy of Medical Sciences. The mice were fasted for 12 hours before intragastric administration. The mice were randomly divided into 3 groups: (1) control group, 400 μl DEPC-treated water, intragastric administration; (2) free uptake group, small RNA (PGY-sRNA-26, PGY-sRNA-32 and PGY-sRNA-23), each small RNA 1 nmol/animal, dissolved in 400 μl DEPC-treated water, intragastric administration; (3) lipid No. 41 group: a mixture of small RNA (PGY-sRNA-26 and PGY-sRNA-32) and lipid No. 41 prepared by heating method was intragastrically administered, each small RNA 1 nmol/animal, lipid No. 41 10 μl/animal, dissolved in 400 μl DEPC-treated water. All tissue and organ samples were collected after 6 hours of intragastric administration. All small RNAs were single-stranded RNA modified by 3p-terminal 2-O-methylation.
After 12 hours, the sample was collected to detect the amount of entry. In Vivo Delivery Experiment of Lipid Nucleic Acid Mixture • 1. […] LightCycler 480 fluorescence quantitative PCR instrument was used, and the PCR reaction conditions were: 95° C., 5 min for pre-denaturation, followed by the PCR amplification cycle: (1) 95° C., 10 s; (2) 55° C., 10 s; (3) 72° C., 20 s; a total of 40 cycles; 40° C. for 10 s in the end to cool down. […]

[4] = tested on: A549 cells; assay: Confocal fluorescence microscopy of green fluorescent protein delivered by lipid into A549 cells; type: cell-based, human; conditions: reverse evaporation method; 6 hours
Description: Experimental method: The bencaosome was prepared by reverse evaporation method. 0.2 nmol green fluorescent protein dissolved in 20 μl water was added to 100 μl ether solutions containing 0 μg, 0.25 μg, 0.75 μg lipid respectively. After fully mixing, sonication was conducted for 3 min. After evaporated at 60° C. to remove organic solvent, the bencaosome solution was obtained by hydrating with 100 μL opti-MEM. Then the bencaosome was added to A549 cells and co-incubated for 6 hours. The samples were collected and tested. After washing three times with PBS, the samples were fixed with 4% paraformaldehyde. After washing three times with PBS, the samples were stained with Alexa Fluor® 488 phalloidin for 30 min. After washing three times with PBS, the samples were stained with Dapi for 5 min, then washed with PBS and sealed for observation.

[5] = tested on: fibronectin and α-SMA; assay: Fibronectin/α-SMA protein expression in TGF-β1-stimulated MRC-5 cells after small RNA delivered by lipid or bencaosome (Western blot); type: cell-based, human; conditions: Examples 5 and 8; nucleic acid 400 nM; TGF-β1 3 ng/mL, 72 hours
[6] = tested on: A549 cells; assay: Flow cytometry of green fluorescent protein delivered by lipid into A549 cells; type: cell-based, human; conditions: 10 μg/mL lipid; reverse evaporation method; 6 hours
Description: (§1) Experimental method: The bencaosome was prepared by reverse evaporation of ether. 0.2 nmol green fluorescent protein dissolved in 20 μl water was added to 100 μl ether solutions containing 0 μg, 1 μg, 3 μg lipid respectively. After fully mixing, sonication was conducted for 3 min. After evaporation at 60° C. to remove organic solvent, the bencaosome solution was obtained by hydrating with 100 μL opti-MEM. Then the bencaosome was added to A549 cells and co-incubated for 6 hours. The samples were collected and tested. After washing three times with PBS, the samples were digested with trypsin for three minutes. The trypsin was removed, and then the samples were washed with PBS and blown off. Accuri® C6 instrument was used to measure.
as §1, with “method.” for “of ether.”, “The trypsin was removed, and then the samples were washed with PBS and blown off. Accuri® C6 instrument was used to measure.” left out

[7] = tested on: A549 cells; assay: Confocal fluorescence microscopy of lipid-delivered nucleic acid in A549 cells; type: cell-based, human; conditions: boiling method; 6 hours
Description: […] Then the mixture was dropped into A549 cells, and after 6 hours of co-incubation, the samples were washed three times with PBS, fixed with 4% paraformaldehyde, washed three times with PBS, stained with Alexa Fluor® 488 phalloidin for 30 min, washed 3 times with PBS, and stained with DAPI for 5 min, washed with PBS, and then sealed.
[…] Then, the mixture was dropped into A549 cells, and after 6 hours of co-incubation, the samples were washed three times with PBS, fixed with 4% paraformaldehyde, washed three times with PBS, stained with Alexa Fluor® 488 phalloidin for 30 min, washed 3 times with PBS, and stained with DAPI for 5 min, PBS washed, and then sealed.

**Q.** For `CCCCCCCC/C=C\CCCCCCCCCCCC(=O)O[C@H](COC(=O)CCCCCCCCCCCCCCC)COP(=O)(O)OCCN` [lipid No. 40, PE(16:0/22:1)], which “delivery of HJT-sRNA-m7 dsRNA into A549 cells (ddPCR)” value [1] is on record?
**A.** Its value is “could effectively deliver HJT-sRNA-m7 dsRNA into A549 cells”.

**Q.** And the “delivery effect of lipid compared with RNAiMAX (RT-qPCR)” value [2]?
**A.** The value was “½”.

**Q.** What about the “delivery of sRNA single-stranded nucleic acid into mouse blood via oral administration” value [3] of the same compound?
**A.** The value was “the delivery effect was better than POPC and Lipofectamine RNAiMAX”.

**Q.** What about the “entry of green fluorescent protein into A549 cells (confocal microscope)” value [4] of the same compound?
**A.** Its value is “could effectively deliver protein into A549 cells”.

**Q.** What about the “inhibition by HJT small RNA at protein level in MRC-5 cells (Western blot)” value [5] of the same compound?
**A.** Its value is “mediated anti-fibrotic double-stranded RNA HJT-sRNA-m7 entry into MRC-5 cells to down-regulate fibronectin protein expression”.

**Q.** And the “efficiency to deliver green fluorescent protein into A549 cells” value [6]?
**A.** The value was 7.2%.

**Q.** And the “entry of PGY-sRNA-6-Cy3 into A549 cells (confocal microscopy)” value [7]?
**A.** The value was “could effectively deliver single-stranded RNA into A549 cells”.
